Series [1] has as its system S. hermonthica seeds. The series is described as follows: Parasitic seed germination bioassay, Striga. The class given is in vivo, Striga hermonthica. The settings on record: for Striga germination rate (comparison in words) / Striga germination rate: 2.5 μM; for EC50: 10^−5M to 10^−12M; for Striga germination rate: 24 h at 30° C. in dark. The method, then:
(§1) Standard procedure was adopted to collect data for each trait, which were analyzed statistically using statistical software package R (version 3.2.2). One-way analysis of variance (ANOVA) and LSD (Least significant difference) multiple range test were applied to investigate the effect of various SL analogs (MPs 16-18 and 21-25) for various parameters. Half Maximum Effective Concentration (EC50) was calculated using IC50 toolkit (http://www.ic50.tk/index.html).
(§2) Seeds of the two root parasitic species S. hermonthica and P. aegyptiaca were tested for germination in response to MP compounds application. After pre-conditioning, as previously described (Jamil et al., 2012), Striga and Phelipanche seeds were first tested with each MP solutions at 2.5 μM concentration (55 μl per disc) and then at a concentration range from 10^−5M to 10^−12M, to calculate EC50. Sterile MilliQ water and GR24 were applied as a negative and a positive control, respectively. Treated seeds were incubated in dark for 24 h at 30° C. (for S. hermonthica) and for one week at 25° C. (for P. aegyptiaca). Germination was recorded under a binocular microscope and used to determine the germination rate (%).

The subject of the next series is P. aegyptiaca seeds. Briefly: Parasitic seed germination bioassay, Phelipanche. The class given is in vivo, Phelipanche aegyptiaca. The settings on record: 2.5 μM; for Phelipanche aegyptiaca germination rate: one week at 25° C. in dark. As for the experimental part: as §2
Series [2] relates to S. hermonthica seeds. The settings on record: previously described MPs, cited from earlier work.
Series [3] has as its system rice (cv IAC-165) leaf segments. The series is described as follows: Dark-induced leaf senescence of rice leaf segments. The settings on record: 3.0 μM; for ion leakage (loss of membrane integrity): continued to increase till day 6; for chlorophyll content: third and fourth day of treatment. The method, then: Rice seeds (cv IAC-165) were surface sterilized with 50% sodium hypochlorite solution and 0.05% Tween-20, and germinated on moist filter paper in the sealed petri plates. The petri plates with germinated seeds were transferred to white fluorescent light (130-180 μM m^−2 s^−1) with 16 h:8 h (L/D) at 28° C., to establish seedlings for one week. Seven days old uniform seedlings were selected and transferred to 50 ml tubes containing half strength modified Hoaglands nutrient solution. After one week, 2 cm leaf segments were cut from middle part of third leaves of rice plants. Each segment was put in a well (in 12-well plates) containing 4 ml of 3.0 mM MES buffer with 0.05% Tween-20. MP16 and GR24 were applied at 3.0 μM concentration. Plates were incubated at 30° C. in the dark for 7 days. After application of MP16 and GR24, plates were monitored on a daily basis and changes in leaf color, chlorophyll content and ion leakage were monitored.

Series [4] is described as follows: Chemical stability in aqueous solution monitored by HPLC/UPLC. In kind it is physicochemical. The settings on record: aqueous solution pH 5.5-6.0, 21±1° C., HPLC, up to 3 weeks. As for the experimental part: Three selected MPs (MP16, MP18, MP21) and rac-GR24 were tested for their chemical stability at 21±1° C. in aqueous solution with a pH of 5.5-6.0, as described previously (Jamil et al., 2018). Compound solution (1 mg ml^−1) was prepared with […] and 750 μl Mili-Q water. Thereafter, 25 μl Indanol (1 mg ml^−1, internal standard) was spiked in 975 μl previous prepared solution. The time course of degradation was monitored in about 50 μl aliquots by UPLC analysis using an Agilent HPLC ZORBAX Eclipse XDB-C18 column ([…], 4.6×150 mm) eluted first by 5% acetonitrile in water for 0.5 min then by a gradient from 5% to 100% acetonitrile within 18 min in water, and finally by 100% acetonitrile for 5 min. The column was operated at 40° C. at […] flow rate. Compounds eluted from the column were detected with a photodiode array detector, and the relative quantity of non-degraded amount was calculated using Indanol as internal standard. Stability was monitored at 24 h intervals up to 3 weeks.

For another series, the target named is T1, OsD14 (Oryza sativa subsp. japonica, UniProt Q10QA5).
T1 construct: made in house
T1 sequence (Q10QA5 1-318): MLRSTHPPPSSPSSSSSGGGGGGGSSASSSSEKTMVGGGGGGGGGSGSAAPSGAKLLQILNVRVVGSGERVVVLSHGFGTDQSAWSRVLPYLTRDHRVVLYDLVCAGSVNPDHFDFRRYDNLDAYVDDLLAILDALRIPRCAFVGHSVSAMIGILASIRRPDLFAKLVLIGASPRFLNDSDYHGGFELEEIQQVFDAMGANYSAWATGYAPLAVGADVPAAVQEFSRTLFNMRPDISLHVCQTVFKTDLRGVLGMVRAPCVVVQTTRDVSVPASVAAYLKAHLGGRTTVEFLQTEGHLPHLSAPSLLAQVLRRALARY
The series is described as follows: In vitro YLG (Yoshimulactone Green) hydrolysis competition assay with OsD14. In kind it is biochemical, rice. The method, then:
(§3) Purification of ShHTL7/OsD14 was carried out by adopting the procedure explained previously (Jamil et al., 2018). In vitro YLG hydrolysis assays were conducted as described before (Tsuchiya et al., 2015). About 3.0 μM of purified ShHTL7/OsD14 protein was used in a reaction buffer (1×PBS buffer, pH 7.3) with 0.1% dimethyl sulfoxide (DMSO) at a 100 μl volume on a 96-well black plate (Greiner). SL analogs (at range between 0.01 to 50 μM) were co-incubated with 1.0 μM of YLG (Tokyo Chemical Industry Co. Ltd., product number E1238) for 60 min at room temperature. In this competition assay, fluorescent intensity was measured by spectraMax i5 (Molecular Devices) at excitation at 480 nm and detection at 520 nm. The variation in fluorescence recorded over the course of 1 h of YLG incubation in protein-free buffer was subtracted from the data collected in presence of protein. IC50 values were calculated by using Quest Graph™ IC50 Calculator.

In series [5] the test system is SL deficient d10/CCD8 rice mutant. Briefly: Rice micro tillering bioassay, SL deficient d10/CCD8 mutant. In kind it is in vivo. The settings on record: 2.5 μM. The method, then:
(§4) After sterilization with 50% sodium hypochlorite, rice seeds (d10/CCD8 and d3 mutants) were germinated on moist filter paper in the dark at 30° C. The germinated seeds were then transferred to light in a growth cabinet with fluorescent white light (130-180 μM m^−2 s^−1) at 30° C. for seven days. One-week old rice seedlings were shifted to 50 ml falcon tubes (one seedling per tube) filled with half-strength modified Hoagland nutrient solution. The tubes with rice seedlings were kept in green house to grow at 30° C. and 70% humidity. After one week, the rice seedlings were treated with 2.5 μM of each SL analog. Mock and GR24 (2.5 μM) were included as control treatments. Each of the SL analogs (MPs 16-18 and 21-25) was applied twice per week up to three weeks. Number of tillers per plant, plant height and dry biomass were measured after three weeks of SL analogs application at final harvest.
as §1

The target in another series is ShHTL7 (Striga hermonthica, UniProt A0A0M3PNA2). The series is described as follows: In vitro YLG (Yoshimulactone Green) hydrolysis competition assay with ShHTL7. The settings on record: competition with 1.0 μM YLG, 60 min, room temperature. In kind it is biochemical. The method, then: as §3
Sequence of ShHTL7 (A0A0M3PNA2 entry or part of it): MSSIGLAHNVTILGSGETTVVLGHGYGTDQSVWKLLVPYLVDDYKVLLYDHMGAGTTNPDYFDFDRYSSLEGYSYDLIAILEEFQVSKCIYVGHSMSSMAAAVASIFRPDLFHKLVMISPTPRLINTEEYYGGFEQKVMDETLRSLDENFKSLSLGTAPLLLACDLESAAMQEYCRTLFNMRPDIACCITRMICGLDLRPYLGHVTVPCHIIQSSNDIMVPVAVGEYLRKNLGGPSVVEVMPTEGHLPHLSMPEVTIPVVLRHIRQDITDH
The subject of series [6] is SL insensitive d3 rice mutant. The series is described as follows: Rice micro tillering bioassay, SL insensitive d3 mutant. In kind it is in vivo. The settings on record: 2.5 μM, three weeks, no effect of treatment. The method, then:
as §4, §1

Read-outs that look alike come from different tables or passages of the source.

The EC50 is the concentration needed to bring the measured effect to its halfway point. As a reminder, the IC50 is the concentration that inhibits the measured activity by half.

With `CC1=CC(O/C=C(/C(=O)Oc2ccccc2)c2ccccc2)OC1=O` (centres unmarked) [MP17, (E)-Phenyl 3-((4-methyl-5-oxo-2,5-dihydrofuran-2-yl)oxy)-2-phenylacrylate], the “Striga germination rate (comparison in words)” value in the series on S. hermonthica seeds [1] was “lower germination rate”. Besides, in the series on S. hermonthica seeds [1] (Striga hermonthica), the EC50 was found to be 4350 nM.

Take `CC1=CC(O/C=C(/C(=O)Oc2ccc(C)cc2)c2ccccc2)OC1=O` (centres unmarked) [MP24, (E)-p-Tolyl 3-((4-methyl-5-oxo-2,5-dihydrofuran-2-yl)oxy)-2-phenylacrylate]: the “Phelipanche seed germination (comparison in words)” value (shortened to “Phelipanche seed germination”) in the series with P. aegyptiaca seeds was “lower activity”.

In the case of `CC1=CC(O/C=C(/C(=O)Oc2cccc(Cl)c2)c2ccccc2)OC1=O` (centres unmarked) [MP22, (E)-3-Chlorophenyl 3-((4-methyl-5-oxo-2,5-dihydrofuran-2-yl)oxy)-2-phenylacrylate], the “Phelipanche seed germination” value in the series on P. aegyptiaca seeds was “lower activity”.

As for `COC(=O)/C(=C/OC1C=C(C)C(=O)O1)c1ccc([N+](=O)[O-])cc1` (centres unmarked) [MP1], in the series on S. hermonthica seeds [2], the “EC50 relative to that of GR24 (Jamil et al., 2018)” value is on record as “about 17 times”. The EC50 with S. hermonthica seeds [2] (read-out: EC50 (Striga seed germination, Jamil et al., 2018)) was 1.5 nM.

As to `CC1=CC(O/C=C(\C(=O)N(C)C)c2ccccc2)OC1=O` (centres unmarked) [MP16, (Z)—N,N-Dimethyl-3-((4-methyl-5-oxo-2,5-dihydrofuran-2-yl)oxy)-2-phenylacrylamide], the “ion leakage (loss of membrane integrity)” value in [3] (dark) is reported as “began to increase on the third day of treatment”. Also, the chlorophyll content result in [3] is “significant reduction”. Moreover, the “stability (relative amount of non-degraded compound) compared to GR24” value in [4] is “in the range of that of GR24”. Besides, in the series on S. hermonthica seeds [1], the “Striga germination rate (comparison in words)” value is “higher than MPs 19 and 20”; the Striga germination rate worked out at 62%. The same compound showed an EC50 in the series on S. hermonthica seeds [1] (Striga hermonthica) of 0.105 nM. Besides, in the series with S. hermonthica seeds [1] (Striga seed germination), the “EC50 compared with MPs 19 and 20” value is “lower EC50 than MPs 19 and 20”; the “EC50 relative to that of GR24” value is “less than two times higher”. Also, the IC50 on OsD14 was 3070 ± 540 nM. Moreover, the “tillering inhibition (in words)” value in series [5] (d10 mutant, compared to mock treatment) was “more effective compared with MPs 19 and 20”. The “effect on growth, biomass and plant height” value in series [5] (rice seedlings, compared with GR24) is “stunted growth and triggered senescence in rice seedlings, leading to reduced biomass and plant height”. Further, the IC50 on ShHTL7 stood at 4370 ± 210 nM. Further, the “Phelipanche aegyptiaca germination rate” value in the series on P. aegyptiaca seeds is on record as “around 51%”.

As to `CC1=CC(O/C=C(/C(=O)OCC(C)C)c2ccccc2)OC1=O` (centres unmarked) [MP19, reference compound], in the series on P. aegyptiaca seeds, the “Phelipanche seed germination” value was “comparable germination rate as MPs 16 and 18”.

Take `CC1=CC(O/C=C(/C(=O)OCc2ccccc2)c2ccccc2)OC1=O` (centres unmarked) [MP18, (E)-Benzyl 3-((4-methyl-5-oxo-2,5-dihydrofuran-2-yl)oxy)-2-phenylacrylate]: the “stability (relative amount of non-degraded compound) compared to GR24” value in [4] was “in the range of that of GR24”. The “Striga germination rate (comparison in words)” value with S. hermonthica seeds [1] is listed as “lower germination rate”. The same compound returned an EC50 with S. hermonthica seeds [1] (Striga hermonthica) of 6.44 nM. Besides, the “EC50 compared with MPs 19 and 20” value in the series on S. hermonthica seeds [1] (Striga seed germination) is “lower EC50 than MPs 19 and 20”. The “Phelipanche aegyptiaca germination rate” value with P. aegyptiaca seeds is recorded as “around 51%”.

As to `CC1=CC(O/C=C(/C(=O)Oc2cccc3ccccc23)c2ccccc2)OC1=O` (centres unmarked) [MP25, (E)-naphthalen-1-yl 3-((4-methyl-5-oxo-2,5-dihydrofuran-2-yl)oxy)-2-phenylacrylate], in the series on P. aegyptiaca seeds, the “Phelipanche seed germination” value is listed as “lower activity”.

Regarding `CC1=CC(O/C=C(/C(=O)OCc2ccccc2)c2ccccc2)OC1=O` (centres unmarked) [MP21, (E)-Benzyl 3-((4-methyl-5-oxo-2,5-dihydrofuran-2-yl)oxy)-2-phenylacrylate], the “stability (relative amount of non-degraded compound) compared to GR24” value in series [4] was “higher degradation rate, compared to GR24”. Also, the “EC50 compared with MPs 19 and 20” value in the series with S. hermonthica seeds [1] (Striga seed germination) is “lower EC50 than MPs 19 and 20”. In addition, the “Phelipanche seed germination” value in the series with P. aegyptiaca seeds is recorded as “lower activity”.

For the compound `CC1=C[C@H](O/C=C2/C(=O)O[C@@H]3c4ccccc4C[C@H]23)OC1=O` [GR24, reference compound], the “number of tillers per plant” value in series [6] turned out to be 4. In series [3] (dark, 30° C., one day earlier than mock control), the “loss of the green color of leaf segments (time)” value was “on the third day after application”. Also, in series [3] (dark), the “ion leakage (loss of membrane integrity)” value was “began to increase on the third day of treatment”. The chlorophyll content entry in [3] is listed as “significant reduction”. In addition, in the series on S. hermonthica seeds [1], the Striga germination rate worked out at 72% and the EC50 was 0.0723 nM. Moreover, on OsD14 (competition with 1.0 μM YLG, 60 min, room temperature, read-out: IC50, OsD14-mediated YLG hydrolysis), the IC50 came to 1040 ± 90 nM. Besides, at ShHTL7, the IC50 amounted to 980 ± 260 nM. In the series on P. aegyptiaca seeds, the “Phelipanche aegyptiaca germination rate” value is reported as 43%.

The values above are taken from US12660818B2, “Strigolactone analogs and methods of using” (King Abdullah University of Science and Technology, priority 2019, dated 2026).
